Results: US11617751B2, “Pharmaceutical composition containing a tetrahydrofolic acid” (Bayer Pharma AG, priority 2006, dated 2023)

Conditions: in presence of polyvinylpyrrolidone (PVP); data not shown

- effect of PVP on break-down of 5-methyl-(6S)-tetrahydrofolic acid: accelerated the break-down
SMILES: CN1c2c(nc(N)[nH]c2=O)NC[C@@H]1CNc1ccc(C(=O)N[C@@H](CCC(=O)O)C(=O)O)cc1 [5-methyl-(6S)-tetrahydrofolic acid]
